Patent US8329913B2, “Carbazole derivative, solvate thereof, or pharmaceutically acceptable salt thereof” (Zeria Pharmaceutical Co., Ltd., priority 2004, dated 2012)

Molecular target: T1, human PPARα (Homo sapiens, UniProt Q07869)
T1 construct: 1.6 kb of DNA fragment including human PPARα gene was collected from the gel; expressed in transfected cells; host or cells: CV-1 cells, transient transfection with pCI-hPPARa, pCI-hRXRa and the reporter pGL3-PPRE3-TK
T1 sequence (Q07869 1-468): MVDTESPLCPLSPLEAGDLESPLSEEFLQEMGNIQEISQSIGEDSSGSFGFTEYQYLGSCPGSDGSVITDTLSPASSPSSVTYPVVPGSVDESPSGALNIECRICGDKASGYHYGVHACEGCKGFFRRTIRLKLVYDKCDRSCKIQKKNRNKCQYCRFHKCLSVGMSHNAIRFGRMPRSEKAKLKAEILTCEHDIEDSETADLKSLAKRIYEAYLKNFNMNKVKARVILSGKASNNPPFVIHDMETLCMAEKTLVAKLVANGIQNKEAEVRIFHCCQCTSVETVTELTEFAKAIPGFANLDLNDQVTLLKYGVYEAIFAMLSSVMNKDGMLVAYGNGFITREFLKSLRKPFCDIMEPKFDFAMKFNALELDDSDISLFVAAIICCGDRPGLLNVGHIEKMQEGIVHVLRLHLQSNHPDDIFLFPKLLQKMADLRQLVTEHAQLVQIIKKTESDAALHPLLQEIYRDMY
T1 sequence (P19793 1-462 partner): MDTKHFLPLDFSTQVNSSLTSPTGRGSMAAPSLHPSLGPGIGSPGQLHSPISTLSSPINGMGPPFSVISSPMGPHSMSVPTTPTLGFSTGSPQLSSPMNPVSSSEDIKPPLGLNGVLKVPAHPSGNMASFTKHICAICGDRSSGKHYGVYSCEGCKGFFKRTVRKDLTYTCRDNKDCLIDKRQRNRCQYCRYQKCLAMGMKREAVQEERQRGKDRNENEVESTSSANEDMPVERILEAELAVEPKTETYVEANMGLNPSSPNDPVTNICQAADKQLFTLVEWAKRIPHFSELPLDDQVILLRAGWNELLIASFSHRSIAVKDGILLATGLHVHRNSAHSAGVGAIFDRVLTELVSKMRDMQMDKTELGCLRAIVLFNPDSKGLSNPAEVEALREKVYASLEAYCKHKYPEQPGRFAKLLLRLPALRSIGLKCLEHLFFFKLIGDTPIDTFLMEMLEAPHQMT
Assay: Human PPARα agonist assay (luciferase reporter in transfected CV-1 cells)
Type: cell-based
Settings: at 1 μM test compound alone; 100% = 1 μM stimulant (GW7647) only; CV-1 cells expressing human PPARα and RXRα
Protocol: CV-1 cells (96 well plate), where human PPARα and RXRα has expressed in the transient transfection of reporter plasmid (see reference 6a) were washed once with PBS (100 μL/well), and then supplemented with 100 μL/well of DMEM medium including 10% of fetal bovine serum to which test compounds at final concentrations of 10 nM, 30 nM, 100 nM, 300 nM, 1 μM, and 3 μM, as well as GW7647 (not limited to GW7647 shown as an example, but may be any PPARα agonist) at a final concentration of 1 nM as a stimulant were added, and incubated in a 5% CO2 incubator at 37° C. for 24 hours. After removing the medium, the CV-1 cells were washed once with PBS (100 μL/well), and supplemented with 60 μL/well of 1× Passive Lysis Buffer (manufactured by Promega Corporation). The CV-1 cells were incubated at room temperature for 30 minutes, stirred, and then by using Dual-Luciferase Reporter Assay System (manufactured by Promega Corporation), luciferase activities of firefly and renilla were measured using 1420 ARVO Multilabel Counter (manufactured by Wallac Oy). Also, the same experiments as that described above were respectively carried out for the cases where only the above-mentioned stimulant (10 nM, 100 nM, 1 μM) were used, where only the above-mentioned test compounds were used, or where neither was used (nonsupplemented), and luciferase activities of firefly and renilla were measured. Values corrected by dividing the firefly luciferase activities by the renilla luciferase activities were calculated as specific activities and used for evaluations. […]
Also, human PPARα agonist activities of the test compounds were evaluated by using a percentage (activity) where the specific activity when nonsupplemented is regarded as 0% and the specific activity in case only 1 μM stimulant was added is regarded as 100%, from the specific activity in case only the test compound is used.
CV-1 cells were cultured in DMEM medium (manufactured by Invitrogen Corporation) including 10% fetal bovine serum (manufactured by Dainippon Pharmaceutical Co., Ltd.) in 225T-Flask (manufactured by Corning Costar). The cells were detached by 0.5 g/L trypsin-0.2 g/L EDTA (ethylene diamine tetra-acetic acid) (manufactured by Invitrogen Corporation), and then suspended in the DMEM medium including 10% fetal bovine serum to a cell concentration of 2×10^5 cells/mL. Thereafter, the cells were seeded into 96 well plate at 2×10^4 cells/0.1 mL/well, incubated in the CO2 incubator at 37° C. overnight, and then the plasmids prepared by the above-mentioned reference 2a, reference 3a, and reference 4a were transfected into cells by using a lipofectamine reagent (manufactured by Invitrogen Corporation) according to the attached manual.
Namely, after CV-1 cells were cultured overnight, the cells were washed with PBS (100 μL/well). Thereafter the cells were incubated for 5 hours at 37° C./5% CO2 in the MEM medium (manufactured by Invitrogen Corporation) including 430 ng/mL of human PPARα expression plasmid (pCI-hPPARa) prepared by the reference 2a, 430 ng/mL of human RXRα expression plasmid (pCI-hRXRa) prepared by the reference 3a, and 140 ng/mL of the reporter plasmid (pGL3-PPRE3-TK) prepared by the reference 4a, 10 ng/mL of phRL-TK vector (manufactured by Promega Corporation) and 2 μL/mL of lipofectamine.

COc1cc(Cn2c3ccccc3c3c(OCC(C)(C)C(=O)O)cccc32)ccc1OCc1nc(-c2ccccc2)oc1C [Example 22, 3-{9-[3-methoxy-4-((5-methyl-2-phenyl-oxazole-4-yl)methoxy)-benzyl]-9H-carbazole-4-yloxy}-2,2-dimethyl-propionic acid]
Human PPARα agonist activities, Activity % (at 1 μM): 40%

COc1cc(Cn2c3ccccc3c3c(OCC(C)(C)C(=O)O)cccc32)ccc1OCc1nc(-c2ccco2)oc1C [Example 23, 3-{9-[4-((2-(furan-2-yl)-5-methyl-oxazole-4-yl)methoxy)-3-methoxy-benzyl]-9H-carbazole-4-yloxy}-2,2-dimethyl-propionic acid]
Human PPARα agonist activities, Activity % (at 1 μM): 69%

COc1cc(Cn2c3ccccc3c3c(OCC(C)(C)C(=O)O)cccc32)ccc1OCc1nc(-c2cccs2)oc1C [Example 24, 3-{9-[3-methoxy-4-((5-methyl-2-(thiophene-2-yl)-oxazole-4-yl)methoxy)-benzyl]-9H-carbazole-4-yloxy}-2,2-dimethyl-propionic acid]
Human PPARα agonist activities, Activity % (at 1 μM): 64%

COc1cc(Cn2c3ccccc3c3c(OCC(C)(C)C(=O)O)cccc32)ccc1OCc1nc(-c2ccncc2)oc1C [Example 25, 3-{9-[3-methoxy-4-((5-methyl-2-pyridine-4-yl-oxazole-4-yl)methoxy)-benzyl]-9H-carbazole-4-yloxy}-2,2-dimethyl-propionic acid]
Human PPARα agonist activities, Activity % (at 1 μM): 47%

COc1cc(Cn2c3ccccc3c3c(OC(C)(C)C(=O)[O-])cccc32)ccc1OCc1nc(-c2ccccc2)oc1C.[Na+] [Example 28, sodium 2-{9-[3-methoxy-4-((5-methyl-2-phenyl-oxazole-4-yl)methoxy)-benzyl]-9H-carbazole-4-yloxy}-2-methyl-propionate]
Human PPARα agonist activities, Activity % (at 1 μM): 56%

CCC(Oc1cccc2c1c1ccccc1n2Cc1ccc(OCc2nc(-c3ccccc3)oc2C)c(OC)c1)C(=O)[O-].[Na+] (stereo not shown) [Example 31]
Human PPARα agonist activities, Activity % (at 1 μM): 21%

COc1cc(Cn2c3ccccc3c3c(OC(C)(C)C(=O)[O-])cccc32)ccc1OCc1nc(-c2cccs2)oc1C.[Na+] [Example 32]
Human PPARα agonist activities, Activity % (at 1 μM): 66%

COc1cc(Cn2c3ccccc3c3c(OCC(C)(C)C(=O)[O-])cccc32)ccc1OCc1nc(-c2ccccc2)oc1C.[Na+] [Example 34]
Human PPARα agonist activities, Activity % (at 1 μM): 41%

CC[C@H](Oc1cccc2c1c1ccccc1n2Cc1ccc(OCc2nc(-c3ccccc3)oc2C)c(OC)c1)C(=O)[O-].[Na+] [Example 38, sodium (S)-(+)-2-{9-[3-methoxy-4-((5-methyl-2-phenyl-oxazole-4-yl)methoxy)-benzyl]-9H-carbazole-4-yloxy}butyrate]
Human PPARα agonist activities, Activity % (at 1 μM): 32%

COc1cc(Cn2c3ccccc3c3c(O[C@H](C)C(=O)[O-])cccc32)ccc1OCc1nc(-c2ccccc2)oc1C.[Na+] [Example 43, sodium (R)-2-{9-[3-methoxy-4-((5-methyl-2-phenyl-oxazole-4-yl)methoxy)-benzyl]-9H-carbazole-4-yloxy}propionate]
Human PPARα agonist activities, Activity % (at 1 μM): 35%
